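Cells were grown in 96-well plates and exposed to each compound for 48 hours at five concentrations; endpoints were interpolated linearly between bracketing concentrations, or set to the highest concentration if not reached. Here, GI50 denotes the concentration required for 50% inhibition of growth.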 Calls of active or inactive are those of the source. No stated cut-off is given here; in the data, active = GI50 up to about 1.1 µM and inactive = higher.
What was measured:
Assay in all cases: NCI tumour cell line growth inhibition, 48 h
[1] = tested on: RXF 393
[2] = tested on: HT-29
[3] = tested on: UO-31
[4] = tested on: ACHN
[5] = tested on: PC-3
[6] = tested on: NCI-H226
[7] = tested on: HCT-116
[8] = tested on: OVCAR-3
[9] = tested on: T47D
[10] = tested on: HCT-15
[11] = tested on: A549
[12] = tested on: Malme-3M
[13] = tested on: UACC-62
[14] = tested on: MCF7
[15] = tested on: SF-268
[16] = tested on: OVCAR-5
[17] = tested on: SF-295
[18] = tested on: SK-MEL-28
[19] = tested on: A498
[20] = tested on: KM12
[21] = tested on: NCI/ADR-RES
[22] = tested on: CAKI-1
[23] = tested on: DU-145
[24] = tested on: OVCAR-8
[25] = tested on: SF-539
[26] = tested on: NCI-H522
[27] = tested on: MDA-N
[28] = tested on: 786-0
[29] = tested on: OVCAR-4
[30] = tested on: IGROV-1
[31] = tested on: U-251
[32] = tested on: MDA-MB-231
[33] = tested on: SK-MEL-5
[34] = tested on: UACC-257
[35] = tested on: SNB-19
[36] = tested on: SK-OV-3
[37] = tested on: MDA-MB-435
[38] = tested on: COLO 205
[39] = tested on: TK-10
[40] = tested on: Hs-578T
[41] = tested on: HOP-92
[42] = tested on: SK-MEL-2
[43] = tested on: NCI-H23
[44] = tested on: EKVX
[45] = tested on: SN12C
[46] = tested on: NCI-H460
[47] = tested on: LOX IMVI
[48] = tested on: K562
[49] = tested on: BT-549
[50] = tested on: SNB-75
[51] = tested on: HOP-62
[52] = tested on: M14
[53] = tested on: SW-620
[54] = tested on: RPMI-8226
[55] = tested on: CCRF-CEM
[56] = tested on: MOLT-4
[57] = tested on: HCC 2998
[58] = tested on: HL-60
[59] = tested on: SR

Measured: GI50

C/C(=N\NS(=O)(=O)c1ccc(C)cc1)P(=O)(O)O
> 100 µM: [10]
inactive: [1] > 100 µM | [2] > 100 µM | [3] > 100 µM | [4] > 100 µM | [5] > 100 µM | [6] > 100 µM | [7] > 100 µM | [8] > 100 µM | [9] > 100 µM | [11] > 100 µM | [12] > 100 µM | [13] > 100 µM | [14] > 100 µM | [15] > 100 µM | [16] > 100 µM | [17] > 100 µM | [18] > 100 µM | [19] > 100 µM | [20] > 100 µM | [21] > 100 µM | [22] > 100 µM | [23] > 100 µM | [24] > 100 µM | [25] > 100 µM | [26] > 100 µM | [27] > 100 µM | [28] > 100 µM | [29] > 100 µM | [30] > 100 µM | [31] > 100 µM | [32] > 100 µM | [33] > 100 µM | [34] > 100 µM | [35] > 100 µM | [36] > 100 µM | [37] > 100 µM | [38] > 100 µM | [39] > 100 µM | [40] > 100 µM | [41] > 100 µM | [42] > 100 µM | [43] > 100 µM | [44] > 100 µM | [45] > 100 µM | [46] > 100 µM | [47] > 100 µM | [48] > 100 µM | [49] > 100 µM | [50] > 100 µM | [51] > 100 µM | [52] > 100 µM | [53] > 100 µM | [54] > 100 µM

CN(C)CCCN1c2ccc([N+](=O)[O-])cc2CCc2cc([N+](=O)[O-])ccc21
inactive: [1] 11.7 µM | [2] 12.4 µM | [3] 12 µM | [4] 15.6 µM | [5] 13.6 µM | [6] 15.7 µM | [55] 11.4 µM | [7] 13.7 µM | [8] 16 µM | [9] 16.1 µM | [11] 16.4 µM | [12] 17.8 µM | [13] 14.7 µM | [14] 15.6 µM | [15] 14.5 µM | [16] 13.9 µM | [17] 15.6 µM | [18] 15 µM | [19] 10.3 µM | [20] 16 µM | [21] 16.4 µM | [22] 14.5 µM | [23] 17.4 µM | [24] 15.8 µM | [25] 18.3 µM | [26] 17.4 µM | [56] 10.1 µM | [27] 13.6 µM | [28] 13.9 µM | [30] 14.6 µM | [31] 13.7 µM | [32] 10.3 µM | [57] 11.9 µM | [33] 10.6 µM | [34] 13.9 µM | [35] 15.4 µM | [36] 14.9 µM | [37] 14.5 µM | [38] 14.2 µM | [39] 12 µM | [40] 17.4 µM | [41] 5.41 µM | [58] 14.1 µM | [42] 17.5 µM | [43] 18.6 µM | [44] 15.2 µM | [45] 15 µM | [46] 12.6 µM | [47] 13.2 µM | [48] 13.1 µM | [49] 15.4 µM | [50] 15.3 µM | [51] 12.5 µM | [52] 14.5 µM | [53] 16 µM | [54] 15.5 µM
17.4 µM: [10]

Cc1ccc(F)cc1NC(=O)O/N=C(\Cl)C(C)C
active: [26] 0.791 µM
1.82 µM: [10]
inactive: [1] 3.05 µM | [2] 14.6 µM | [3] 7.98 µM | [4] 2.14 µM | [5] 18 µM | [6] 14 µM | [55] 1.9 µM | [7] 5.28 µM | [8] 6.47 µM | [9] 4.73 µM | [11] 18.9 µM | [12] 2.7 µM | [13] 13.2 µM | [14] 6.4 µM | [15] 24.5 µM | [16] 15.4 µM | [17] 28.5 µM | [18] 15.8 µM | [19] 20 µM | [20] 16.9 µM | [21] 10.6 µM | [22] 1.72 µM | [23] 18.2 µM | [24] 17.5 µM | [25] 7.21 µM | [56] 1.6 µM | [27] 5.62 µM | [28] 5.69 µM | [29] 16 µM | [30] 17.2 µM | [31] 23.3 µM | [32] 14.1 µM | [57] 16.2 µM | [33] 6.97 µM | [34] 19 µM | [35] 35.5 µM | [36] 20.2 µM | [37] 13 µM | [38] 1.9 µM | [39] 3.71 µM | [40] 22.5 µM | [41] 2.58 µM | [58] 2.32 µM | [42] 19.1 µM | [43] 17.9 µM | [44] 7.19 µM | [45] 6.11 µM | [46] 29.2 µM | [47] 1.98 µM | [48] 1.97 µM | [49] 2.18 µM | [50] 14.8 µM | [51] 19.5 µM | [52] 5.22 µM | [53] 2.35 µM | [54] 2.17 µM

N#Cc1nc(CCCN2C(=O)c3ccccc3C2=O)oc1N
> 100 µM: [10]
inactive: [1] > 100 µM | [2] > 100 µM | [3] > 100 µM | [4] > 100 µM | [5] > 100 µM | [6] > 100 µM | [59] > 100 µM | [55] > 100 µM | [7] > 100 µM | [8] > 100 µM | [9] > 100 µM | [11] > 100 µM | [12] > 100 µM | [14] > 100 µM | [15] > 100 µM | [16] > 100 µM | [17] > 100 µM | [18] > 100 µM | [21] > 100 µM | [22] > 100 µM | [23] > 100 µM | [24] > 100 µM | [25] > 100 µM | [26] > 100 µM | [56] > 100 µM | [27] > 100 µM | [28] > 100 µM | [29] > 100 µM | [30] > 100 µM | [31] > 100 µM | [32] > 100 µM | [57] > 100 µM | [33] > 100 µM | [34] > 100 µM | [35] > 100 µM | [36] > 100 µM | [37] > 100 µM | [38] > 100 µM | [39] > 100 µM | [40] > 100 µM | [42] > 100 µM | [43] > 100 µM | [44] > 100 µM | [45] > 100 µM | [46] > 100 µM | [47] > 100 µM | [48] > 100 µM | [49] > 100 µM | [51] > 100 µM | [52] > 100 µM | [53] > 100 µM | [54] > 100 µM

CCC1(N)C(=O)OCc2c1cc1n(c2=O)Cc2cc3ccccc3nc2-1 (stereo not given)
active: [55] 0.859 µM | [56] 0.871 µM | [46] 0.47 µM
32.7 µM: [10]
inactive: [1] 13.4 µM | [2] 15 µM | [3] 3.42 µM | [4] 3.73 µM | [5] 15.2 µM | [6] 6.08 µM | [7] 4.67 µM | [8] > 55.7 µM | [9] 2.35 µM | [11] 6.58 µM | [12] 44.3 µM | [13] 2.75 µM | [14] 2.14 µM | [15] 5.7 µM | [16] 44.5 µM | [17] 5.31 µM | [18] > 93.1 µM | [19] 4.74 µM | [20] 46.1 µM | [21] 5.02 µM | [22] 2.84 µM | [23] 2.65 µM | [24] 7.71 µM | [25] 4.04 µM | [26] 9.51 µM | [27] 17.7 µM | [28] 3.74 µM | [29] 50 µM | [30] 6.56 µM | [31] 6.73 µM | [32] 77.4 µM | [57] 38.4 µM | [33] 5.21 µM | [34] 36.6 µM | [35] 7.67 µM | [36] > 100 µM | [37] 54.6 µM | [38] 30.5 µM | [39] > 74.3 µM | [40] > 100 µM | [41] 35.4 µM | [58] 1.74 µM | [42] > 85.7 µM | [43] 4.56 µM | [44] 51.4 µM | [45] 3.99 µM | [47] 4.78 µM | [48] 18.9 µM | [49] 30.5 µM | [50] 8.36 µM | [51] 5.69 µM | [52] 7.41 µM | [53] 25.7 µM | [54] 32.7 µM

Source: ChEMBL document CHEMBL1201862, “PubChem BioAssay data set” (2004)
